The record followed here is US8962257B2, “Methods for diagnosing heart failure and other cardiac diseases” (The Trustees of the University of Pennsylvania, priority 2010, dated 2015).

The subject of the experiment is NRG-1β. In words: Serial plasma NRG-1β by indirect sandwich ELISA in Her-2+ breast cancer patients receiving doxorubicin and trastuzumab. Format: in vivo, human. Conditions: with Doxorubicin exposure. Here is the method: NRG-1β is measured from frozen, previously unthawed serum or plasma samples that had been stored at −80° C. until time of assay. An indirect sandwich enzyme-linked immunosorbent assay (ELISA) was used (NRG1-β1 Duoset ELISA development system from R&D Systems, Minneapolis, Minn.). Assay technology was adapted for human samples, and all measurements were performed at Vanderbilt University. […] Following incubation, a biotinylated goat anti-human NRG1-β1 detection antibody was added to each well, and a streptavidin-HRP system was used for detection. […] Extensive validation was performed and there was no cross-reactivity with NRG-1α isoform or epidermal growth factor.
Data were obtained at enrollment and every 3 months during anti-cancer therapy.
NRG-1β plasma level was measured serially every 3 months during chemotherapy treatment.
(In general: An ELISA detects its analyte on a solid surface through an enzyme-linked reagent.)

Turning to `COc1cccc2c1C(=O)c1c(O)c3c(c(O)c1C2=O)C[C@@](O)(C(=O)CO)C[C@@H]3O[C@H]1C[C@H](N)[C@H](O)[C@H](C)O1` [Doxorubicin, doxorubicin], the “change in NRG-1β over time” value is listed as “significant decrease”. The “change in NRG-1β over time” value (listed as doxorubicin) is “significant decline”.
